Like-named read-outs stand apart in the source and are kept apart here.
How the values were obtained:
MOLT-4 = experiment: NCI-60 screening (SRB); format: cell-based, human; details: five-dose
RPMI-8226 = experiment: NCI-60 screening (SRB); format: cell-based, human; details: five-dose
HOP-62 = experiment: NCI-60 screening (SRB); format: cell-based, human; details: five-dose
HOP-92 = experiment: NCI-60 screening (SRB); format: cell-based, human; details: five-dose
HCC-2998 = experiment: NCI-60 screening (SRB); format: cell-based, human; details: five-dose
SF-268 = experiment: NCI-60 screening (SRB); format: cell-based, human; details: five-dose
U251 = experiment: NCI-60 screening (SRB); format: cell-based, human; details: U251, five-dose
CNS cancer = experiment: cells; format: cell-based
Description: (§1) The experimental data allow the assessment of the cytostatic effect, indicated by growth inhibition values ranging between 0 and 100, as well as of the cytotoxic effect, indicated by negative values.
(§2) The mean GI50 (molar concentration of the compound that inhibits 50% net cell growth), TGI (molar concentration of the compound leading to the total inhibition), and LC50 (molar concentration of the compound leading to 50% net cell death (presented in negative logarithm)) values across each cell line are shown in Table 2.
(§3) The selectivity index (SI), calculated as the ratio between the full panel MG_MID60 (μM) of compounds 4, 6, and 9 by their respective subpanels MG_MID of the cell line (μM), was introduced as a quantification tool for the selectivity of each compound in terms of anticancer effect (Table 3).
(§4) Primary anticancer assays were performed according to the NCI protocol, as described elsewhere (see e.g., http://dtp.nci.nih.gov accessed on 1 November 2018). The compounds were added at a single concentration, and the cell cultures were incubated for 48 h. The end point determinations were made with a protein-binding dye, sulforhodamine B (SRB). […] The percentage of growth was evaluated spectrophotometrically versus controls not treated with test agents after 48 h exposure and using SRB protein assay to estimate cell viability or growth. Three antitumor activity dose-response parameters were calculated for each cell line. Furthermore, mean graph midpoints (MG_MID) were calculated for each of the parameters, giving an average activity parameter over all cell lines for the tested compound. For the MG_MID calculation, insensitive cell lines were included with the highest concentration tested.

MDA-MB-435 = experiment: NCI-60 screening (SRB); format: cell-based, human; details: five-dose
SK-MEL-2 = experiment: NCI-60 screening (SRB); format: cell-based, human; details: five-dose
SK-MEL-28 = experiment: NCI-60 screening (SRB); format: cell-based, human
SK-MEL-5 = experiment: NCI-60 screening (SRB); format: cell-based, human; details: SK-MEL-5
UACC-257 = experiment: NCI-60 screening (SRB); format: cell-based, human; details: five-dose
UACC-62 = experiment: NCI-60 screening (SRB); format: cell-based, human; details: five-dose
IGROV1 = experiment: NCI-60 screening (SRB); format: cell-based, human
OVCAR-5 = experiment: NCI-60 screening (SRB); format: cell-based, human; details: five-dose
OVCAR-8 = experiment: NCI-60 screening (SRB); format: cell-based, human; details: five-dose
SK-OV-3 = experiment: NCI-60 screening (SRB); format: cell-based, human; details: five-dose
CAKI-1 = experiment: NCI-60 screening (SRB); format: cell-based, human; details: CAKI-1, five-dose
RXF 393 = experiment: NCI-60 screening (SRB); format: cell-based, human; details: five-dose
SN12C = experiment: NCI-60 screening (SRB); format: cell-based, human; details: five-dose
PC-3 = experiment: NCI-60 screening (SRB); format: cell-based, human; details: five-dose
DU-145 = experiment: NCI-60 screening (SRB); format: cell-based, human; details: five-dose
MDA-MB-31/ATCC = experiment: NCI-60 screening (SRB); format: cell-based, human; details: five-dose
BT-549 = experiment: NCI-60 screening (SRB); format: cell-based, human; details: five-dose
[1] = system: NCI-60 cancer cell line panel; experiment: NCI-60 screening (SRB), full panel; format: cell-based, human; details: for activity at 10 µM: 60 cell lines, 48 h
Description: as §1, §2, §3, §4

[2] = Homo sapiens, read-out: LC50 (the source's name)
[3] = Homo sapiens, five-dose, read-out: LC50 (the source's name)

## CCN1CCN(C(=O)[C@]23CC[C@@H](C)[C@H](C)[C@H]2C2=CC[C@@H]4[C@@]5(C)CCC(=O)C(C)(C)[C@@H]5CC[C@@]4(C)[C@]2(C)CC3)CC1 [Compound 4, N-(3-oxo-ursan-12-en-28-oyl)-ethylpiperazine]
MOLT-4; Homo sapiens
  GI50: 994 nM
MOLT-4; [2]
  CC50: > 50000 nM
MOLT-4
  TGI: 2900 nM
RPMI-8226; Homo sapiens
  GI50: 809 nM
RPMI-8226; [2]
  CC50: 4900 nM
RPMI-8226
  TGI: 1990 nM
HOP-62; Homo sapiens
  GI50: 1380 nM
  LC50: > 50000 nM
HOP-62
  TGI: 3090 nM
HOP-92; Homo sapiens
  GI50: 713 nM
HOP-92; [2]
  CC50: 8220 nM
HOP-92
  TGI: 2060 nM
HCC-2998; Homo sapiens
  GI50: 922 nM
HCC-2998; [2]
  CC50: 3600 nM
HCC-2998
  TGI: 1820 nM
SF-268; Homo sapiens
  GI50: 1770 nM
SF-268; [2]
  CC50: 24600 nM
SF-268
  TGI: 6490 nM
U251; Homo sapiens, U-251
  GI50: 854 nM
U251; Homo sapiens, U-251, read-out: LC50 (the source's name)
  CC50: 4000 nM
U251
  TGI: 1850 nM
CNS cancer; CNS cancer subpanel, five-dose
  TGI MG_MID: 2840 nM
CNS cancer; CNS cancer, MG_MID60/subpanel MG_MID
  SI (TGI): 0.96
CNS cancer; Homo sapiens, CNS cancer subpanel, five-dose, read-out: GI50 MG_MID
  GI50: 1030 nM
CNS cancer; Homo sapiens, CNS cancer subpanel, five-dose, read-out: LC50 MG_MID
  CC50: 8690 nM
MDA-MB-435; Homo sapiens
  GI50: 1050 nM
MDA-MB-435; [2]
  CC50: 5220 nM
MDA-MB-435
  TGI: 2300 nM
SK-MEL-2; Homo sapiens
  GI50: 1290 nM
SK-MEL-2; [2]
  CC50: 16200 nM
SK-MEL-2
  TGI: 3330 nM
SK-MEL-28; 1 dose 10 µM
  Growth %: −64.66%
SK-MEL-28; Homo sapiens, five-dose
  GI50: 889 nM
SK-MEL-28; [3]
  CC50: 3270 nM
SK-MEL-28; five-dose
  TGI: 1700 nM
SK-MEL-5; Homo sapiens, five-dose
  GI50: 888 nM
SK-MEL-5; [3]
  CC50: 2890 nM
SK-MEL-5; 1 dose 10 µM
  Growth %: −84.06%
SK-MEL-5; five-dose
  TGI: 1600 nM
UACC-257; Homo sapiens
  GI50: 985 nM
UACC-257; [2]
  CC50: 4880 nM
UACC-257
  TGI: 2190 nM
UACC-62; Homo sapiens
  GI50: 835 nM
UACC-62; [2]
  CC50: 3090 nM
UACC-62
  TGI: 1610 nM
IGROV1; Homo sapiens, IGROV-1, five-dose
  GI50: 1040 nM
IGROV1; Homo sapiens, IGROV-1, five-dose, read-out: LC50 (the source's name)
  CC50: 19100 nM
IGROV1; five-dose
  TGI: 4850 nM
OVCAR-5; Homo sapiens
  GI50: 907 nM
OVCAR-5; [2]
  CC50: 3870 nM
OVCAR-5
  TGI: 1870 nM
OVCAR-8; Homo sapiens
  GI50: 1100 nM
OVCAR-8; [2]
  CC50: 30100 nM
OVCAR-8
  TGI: 2890 nM
SK-OV-3; Homo sapiens
  GI50: 1150 nM
SK-OV-3; [2]
  CC50: 17200 nM
SK-OV-3
  TGI: 4830 nM
CAKI-1
  TGI: 2960 nM
CAKI-1; Homo sapiens
  GI50: 946 nM
CAKI-1; [2]
  CC50: 11200 nM
RXF 393; Homo sapiens
  GI50: 822 nM
RXF 393; [2]
  CC50: 3690 nM
RXF 393
  TGI: 1740 nM
SN12C; Homo sapiens
  GI50: 776 nM
SN12C; [2]
  CC50: 2810 nM
SN12C
  TGI: 1480 nM
PC-3; Homo sapiens
  GI50: 875 nM
PC-3; [2]
  CC50: 18300 nM
PC-3
  TGI: 3170 nM
DU-145; Homo sapiens
  GI50: 1670 nM
DU-145; [2]
  CC50: 18600 nM
DU-145
  TGI: 5620 nM
MDA-MB-31/ATCC; Homo sapiens
  GI50: 779 nM
MDA-MB-31/ATCC; [2]
  CC50: 2880 nM
MDA-MB-31/ATCC
  TGI: 1500 nM
BT-549; Homo sapiens
  GI50: 833 nM
BT-549; [2]
  CC50: 3000 nM
BT-549
  TGI: 1580 nM
[1]; 1 dose 10 µM
  Positive Cytostatic Effect (cell lines with percent growth 0 to 50 / total): 60/60
  Positive Cytotoxic Effect (cell lines with percent growth <0 / total): 60/60
[1]; Homo sapiens, five-dose, bound, read-out: GI50 against all human tumor cells
  GI50: < 2000 nM
[1]; Homo sapiens, five-dose, read-out: GI50 against the most sensitive cell lines
  GI50: 700 to 990 nM
[1]; Homo sapiens, mean graph midpoint, full panel, five-dose, read-out: GI50 MG_MID60
  GI50: 1030 nM
[1]; Homo sapiens, mean graph midpoint, full panel, five-dose, read-out: LC50 MG_MID60
  CC50: 12300 nM
[1]; Homo sapiens, 1 dose 10 µM, read-out: Mean Growth, %
  activity at 10 µM: -10.5%
[1]; Homo sapiens, 1 dose 10 µM, read-out: Range of Growth, %
  activity at 10 µM: -85.7 to -41.5%
[1]; all GI50, TGI, and LC50 levels
  selectivity class: nonselective (ratios below 3 indicate nonselective compounds)
[1]; mean graph midpoint, full panel, five-dose
  TGI MG_MID60: 2740 nM
